Where two headings read alike, the source gives them in different places. Residues, ends and D or L forms follow the SMILES beside them.
How the values were obtained:
ACE [1] = settings: cited from earlier work
From the text: ACE inhibitor peptides have been reported with competitive, noncompetitive, uncompetitive, and mixed modes of interaction. The kinetic constants were estimated by using nonlinear regression analysis (SPSS, version 26.0, Inc., Chicago, IL, USA) and the nonlinear fitting plots were shown in Figure 8. […] Mixed-type inhibitors interact with the non-catalytic site of the e ...

ACE [2] = settings: cited from earlier work; remark: listed apart in the source
From the text: Table 1 The summary of ACE inhibitory peptides by conventional approach and affinity purification on different medium. | column: IC50 || Table 2 The summary of ACE inhibitory peptides have similar structure with purified peptides KNFL from food protein. | column: IC50 (μM) || Researchers have investigated the structure-activity relationship of ACE inhibitor peptides, such as the peptide chain length, amino acid sequence, C- terminal, and N-terminal amino acid sequence. Most of the ACE inhibitors are reported to have small molecular weights (2–12 amino acids), and there are four amino acids in the newly identified peptide KNFL. […] In this study, the C-terminal amino acids (phenylalanine and leucine) of the KNFL peptide have stro ...

[3] = amino acid residue; source not given; cited from earlier work
[4] = synthetic ACE inhibitors in hypertension treatment; ref [1]; cited from earlier work
From the text: As a zinc-dependent carboxypeptidase, angiotensin-I-converting enzyme (ACE EC 3.4.15.1) is prolific in biological tissues and blood, and plays an important role in modulating blood pressure. ACE cannot only convert angiotensin I to angiotensin II (a potent vasoconstrictor), but it can also degrade the vasodilator bradykinin [2]. ACE inhibitors are, thus, a class of drugs frequently used in the treatment of hypertension. Synthetic ACE inhibitors, including captopril, benazepril, enalapril, and perindopril are associated with various side effects, such as cough, taste disturbances, aller ...

ACE [5] = target: T1, ACE (Oryctolagus cuniculus, UniProt P12822); assay: Inhibition pattern / kinetics of ACE in presence of KNFL; format: biochemical, rabbit; settings: for Vmax: nonlinear regression, control 55.492
T1 construct: Angiotensin I-converting enzyme (ACE, EC3.4.15.1) from rabbit lung; purchased Sigma-Aldrich Co. (St. Louis, MO, USA); host or cells: rabbit lung (tissue-derived)
T1 sequence (P12822 34-1310): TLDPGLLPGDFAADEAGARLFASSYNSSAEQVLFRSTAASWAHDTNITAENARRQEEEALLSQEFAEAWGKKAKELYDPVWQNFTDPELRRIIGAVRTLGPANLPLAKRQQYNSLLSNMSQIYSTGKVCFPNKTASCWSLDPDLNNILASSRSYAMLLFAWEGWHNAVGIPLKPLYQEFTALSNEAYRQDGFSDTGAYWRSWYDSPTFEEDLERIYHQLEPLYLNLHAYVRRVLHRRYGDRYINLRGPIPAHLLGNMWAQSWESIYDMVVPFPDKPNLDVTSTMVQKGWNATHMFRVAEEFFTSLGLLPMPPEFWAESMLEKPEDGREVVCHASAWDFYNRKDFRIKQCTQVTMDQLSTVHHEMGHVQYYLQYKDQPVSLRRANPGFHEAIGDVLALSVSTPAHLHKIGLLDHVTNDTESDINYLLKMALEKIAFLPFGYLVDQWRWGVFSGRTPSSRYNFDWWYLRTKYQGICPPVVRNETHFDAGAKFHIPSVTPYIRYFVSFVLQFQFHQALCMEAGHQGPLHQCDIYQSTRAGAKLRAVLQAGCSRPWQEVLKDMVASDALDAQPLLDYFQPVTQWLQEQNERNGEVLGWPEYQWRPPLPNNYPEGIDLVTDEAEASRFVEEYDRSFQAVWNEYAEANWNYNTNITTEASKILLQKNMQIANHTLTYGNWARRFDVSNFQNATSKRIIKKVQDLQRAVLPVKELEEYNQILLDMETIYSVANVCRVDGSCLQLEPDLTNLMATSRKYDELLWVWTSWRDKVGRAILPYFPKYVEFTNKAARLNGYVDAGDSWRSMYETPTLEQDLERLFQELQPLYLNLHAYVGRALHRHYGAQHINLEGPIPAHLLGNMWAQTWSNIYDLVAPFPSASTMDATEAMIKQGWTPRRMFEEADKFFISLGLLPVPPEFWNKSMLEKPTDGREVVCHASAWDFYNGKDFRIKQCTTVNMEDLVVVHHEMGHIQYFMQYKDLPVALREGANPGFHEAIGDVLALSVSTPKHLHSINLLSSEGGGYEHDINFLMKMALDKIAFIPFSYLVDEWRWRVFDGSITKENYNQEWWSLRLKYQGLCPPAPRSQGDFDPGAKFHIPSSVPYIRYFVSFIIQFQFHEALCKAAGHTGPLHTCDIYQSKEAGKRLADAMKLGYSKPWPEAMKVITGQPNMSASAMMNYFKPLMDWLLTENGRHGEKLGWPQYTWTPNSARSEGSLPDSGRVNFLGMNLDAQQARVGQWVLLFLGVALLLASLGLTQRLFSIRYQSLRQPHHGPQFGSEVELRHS
From the text: ACE inhibitor peptides have been reported with competitive, noncompetitive, uncompetitive, and mixed modes of interaction. The kinetic constants were estimated by using nonlinear regression analysis (SPSS, version 26.0, Inc., Chicago, IL, USA) and the nonlinear fitting plots were shown in Figure 8. […] Mixed-type inhibitors interact with the non-catalytic site of the enzyme and combine with the enzyme to produce an ACE–HHL(Hip-His-Leu) peptide complex which might leads to conformational changes and a decrease in substrate affinity at the active site resulting in loss of activity. A great many of ACE inhibitor peptides acted in a mixed-type manner. For example, the MAINPSKENLCSTFCK peptide produced from casein hydrolysates, and EVSQGRP, VSRHFASYAN and SAAVGSP generated from Stichopus horrens.
Angiotensin I-converting enzyme (ACE, EC3.4.15.1) from rabbit lung, HHL (Hippuryl-L-histidyl-L-leucine), were obtained from Sigma-Aldrich Co. (St. Louis, MO, USA). The ACE inhibitor KNFL (Lys-Asn-Phe-Leu) was supplied by GL Biochem Ltd. (Shanghai, China). Iron chloride hexahydrate (FeCl3·6H2O), ethylene glycol (EG), diethylene glycol (DEG), sodium acetate anhydrous (NaAc), and zinc acetate dehydrate Zn(CH3COO)2·2H2O were all obtained from Sinopharm Chemical Reagent Co., Ltd. (Shanghai, China). Polyacrylic acid (PAA), imidazolate-2-carboxyaldehyde (2-ICA, 98 %), sodium acrylate (NaAA) were purchased from Macklin Biochemical Co., Ltd (Shanghai, China). The other chemicals and reagents used were of AR grade and used without further purification.
ACE activity was evaluated by measuring the amount of hippuric acid (HA). The assay mixture (0.3 mL) consisted of 130 µL BBS buffer pH 8.3 ([…], containing 0.3 M NaCl), 40 µL HHL (5 mM), and different amounts of the free and immobilized ACE. Incubation was carried out at 37 °C for 10 min and was terminated by addition of HCl (0.1 mL, 1 M). The HA content of the mixture was determined by RP-HPLC (Agilent 1260) at 228 nm with a DAD detector. One unit of ACE enzyme activity (U) was defined as the amount of enzyme catalyzing HHL to generate 1 µM of HA per minute under the experimental conditions.

[6] = Volutharpa ampullaceal perryi, affinity purification/ Zn-SBA-15-ACE, ref [12]
[7] = generated from Stichopus horrens, ref [51]
[8] = Wakame, conventional approach, ref [28]
[9] = in the presence of KNFL (192 and 384 µM)

MAINPSKENLCSTFCK [peptide produced from casein hydrolysates]
inhibition mode (ACE [1]; produced from casein hydrolysates, ref [50]): mixed-type

IVTNWDDMGK
IC50 (ACE [2]; [6]): 2080 µM

N[C@@H](Cc1c[nH]cn1)C(=O)O [histidine]
Lipophilicity Parameters [3]: −3.2

N=C(N)NCCC[C@H](N)C(=O)O [arginine]
Lipophilicity Parameters [3]: −4.5

C[C@H](CS)C(=O)N1CCC[C@H]1C(=O)O [captopril]
side effects [4]: cough, taste disturbances, allergic reactions, and skin rashes

WYLHYA
IC50 (ACE [2]; casein, affinity purification/ IMAC-Ni^2+, ref [41]): 16.2 µM

VSRHFASYAN [peptide generated from Stichopus horrens]
inhibition mode (ACE [1]; [7]): mixed-type

LLYQEPVLGPVR
IC50 (ACE [2]; casein, affinity purification/ IMAM @ mPEG, ref [9]): 274 ± 5 µM

YKYY
IC50 (ACE [2]; [8]): 64.2 µM

HLHT
IC50 (ACE [2]; Pinctada fucata martensii, affinity purification/ IMAM @ mPEG, ref [10]): 458.1 ± 3.24 µM

CCC[C@H](N[C@@H](C)C(=O)N1[C@H](C(=O)O)C[C@@H]2CCCC[C@@H]21)C(=O)OCC [perindopril]
side effects [4]: cough, taste disturbances, allergic reactions, and skin rashes

NCCCC[C@H](N)C(=O)O [lysine]
Lipophilicity Parameters [3]: −3.9

N[C@@H](CCC(=O)O)C(=O)O [glutamic acid]
Lipophilicity Parameters [3]: −3.5

CCOC(=O)[C@H](CCc1ccccc1)N[C@@H](C)C(=O)N1CCC[C@H]1C(=O)O [enalapril]
side effects [4]: cough, taste disturbances, allergic reactions, and skin rashes

N[C@@H](CC(=O)O)C(=O)O [aspartic acid]
Lipophilicity Parameters [3]: −3.5

RYRP
IC50 (ACE [2]; lizard fish, affinity purification/ IMAC-Ni^2+, ref [39]): 52 µM

SAAVGSP [peptide generated from Stichopus horrens]
inhibition mode (ACE [1]; [7]): mixed-type

NC(=O)C[C@H](N)C(=O)O [asparagine]
Lipophilicity Parameters [3]: −3.5

YNKL
IC50 (ACE [2]; [8]): 21 µM

CCOC(=O)[C@H](CCc1ccccc1)N[C@H]1CCc2ccccc2N(CC(=O)O)C1=O [benazepril]
side effects [4]: cough, taste disturbances, allergic reactions, and skin rashes

KFYG
IC50 (ACE [2]; [8]): 90.5 µM

AIYK
IC50 (ACE [2]; [8]): 213 µM

VGPAGRRG
IC50 (ACE [2]; [6]): 4660 µM

CC(C)C[C@H](N)C(=O)O [leucine]
Lipophilicity Parameters [3]: 3.8

EVSQGRP [peptide generated from Stichopus horrens]
inhibition mode (ACE [1]; [7]): mixed-type

CC(C)C[C@H](NC(=O)[C@H](Cc1ccccc1)NC(=O)[C@H](CC(N)=O)NC(=O)[C@@H](N)CCCCN)C(=O)O [KNFL, Lys-Asn-Phe-Leu] (H-KNFL-OH; N-terminus and C-terminus assumed)
Vmax (ACE [5]; KNFL at 192 µM): 45.958 µM/L·min | Vmax (ACE [5]; KNFL at 384 µM): 24.105 µM/L·min | inhibition pattern (ACE [5]; b33/b37: nonlinear regression, b1: Lineweaver–Burk analysis): mixed-type inhibition | effect on Km (ACE [5]; [9]): increased | effect on Vmax (ACE [5]; [9]): decreased in a dose-dependent pattern

GMKCAF
IC50 (ACE [2]; lizard fish, affinity purification/ Magnetic agarose-ACE, ref [6]): 45.7 ± 1.1 µM

RVCLP
IC50 (ACE [2]; lizard fish, conventional approach, ref [29]): 175 µM

KNGDGY
IC50 (ACE [2]; Cuttlefish, ref [49]): 51.6 µM

NC(=O)CC[C@H](N)C(=O)O [glutamine]
Lipophilicity Parameters [3]: −3.5

N[C@@H](CO)C(=O)O [serine]
Lipophilicity Parameters [3]: −0.8

Reference: article PMC8004985, “Affinity Purification of Angiotensin Converting Enzyme Inhibitory Peptides from Wakame (Undaria Pinnatifida) Using Immobilized ACE on Magnetic Metal Organic Frameworks” (Marine Drugs, 2021)
